Where two headings read alike, the source gives them in different places.
Columns and labels:
[1] = test system: streptozotocin-induced diabetic male rats; assay: PDMP treatment of streptozotocin diabetic rats (renal hypertrophy); format: in vivo, rat
Experimental: (§1) Because there is gender specific expression of renal GSLs, only male rats were used. Shukla, A. et al., am. J. Physiol. 262: F24-F29 (1992). Male rats were fed a standard pellet laboratory chow and were provided with water ad libitum. Diabetes was induced by the administration of streptozotocin (80 mg/kg i.p.) dissolved in 10 mM Na citrate, pH 5.5. Controls were injected with buffer alone. Animals were provided with immediate access to food. Blood was obtained from the tail vein and blood glucose levels were determined with a Beckman glucose analyzer 48 h following the injection and at the time of organ resection. […] Therefore only animals with blood glucose concentrations between 13.5 and 32 mM were utilized. At the end of the experimental period, the animals were weighted, anesthetized with ether, and their kidneys removed and weighed. For UDP-Glc measurements, the kidneys were frozen in liquid nitrogen immediately following removal.
(§2) The GlcCer synthase inhibitor PDMP was administered as the DL-hydrochlorideto both diabetic and control animals 14 days following the induction of diabetes with streptozotocin (see Table IV results). […] See Shukla, A. et al., J. Lipid. Res. 32:713-722 (1991). The piperonyl butoxide was prepared by dissolution in corn oil at a concentration of 150 mg/ml oil. The butoxide solution was administered intraperitoneally prior to injection of PDMP. On the first day of treatment this was given 4 h before PDMP treatment; on days 2 to 4 of treatment it was administered just prior to the PDMP injection. PDMP was prepared as an emulsion with the detergent Myrj 52 in normal saline, buffered with sodium acetate. The final concentrations of PDMP, Myrj 52 and sodium acetate in mg/ml were 6, 12, and 8 respectively. The PDMP was given intraperitoneally as a dose of 100 mg/kg body weight.
(§3) Glomerular volumes were measured on paraffin sections of kidney fixed in formalin and stained with periodic acid Schiff reagent. The measurements required the determination of the mean glomerular random cross sectional area (A(G)). Glomerular areas were measured using a Javelin Chromachip camera (Javelin Electronics, Torrance, Calif.) attached to an Olympus BH-2 microscope interfaced with a Macintosh II computer containing an Image Capture 2 frame grabber (Scion Corp., Walkerville, Md.) and image 1.38B14 software (NIH Public Software, Bethesda, Md.). Glomerular volumes were derived by the method described in Weibel "Stereological Methods. Practical Methods for Biological Morphometry," (academic Press, London) p. 44-45 (1979) as applied by Hirose, K. et al., Kidney Int. 21:689-695 (1982).
(§4) To determine whether the increase in glucolipid formation in diabetes was functionally important, the following experiment was performed. One group of animals was made diabetic with streptozotocin, and the other group received vehicle alone. After two weeks, the control and diabetic groups were divided according to the weights of the rats. Half of the non-diabetic and half of the diabetic animals received DL-threo-PDMP, which is the racemic mixture of the compound of the Formula I where n is 8. The control non-diabetic and diabetic groups were pair fed and received vehicle alone. After 4 days of treatment the animals were weighed and sacrificed. In Table V, the data are expressed as the mean ± S.D. All animals received the cytochrome P450 inhibitor piperonyl butoxide (600 mg/kg) intraperitoneally. Treated control and diabetic animals received DL-threo-PDMP.

[2] = test system: non-diabetic control male rats; assay: PDMP treatment of non-diabetic control rats; format: in vivo, rat
Experimental: as §1, §2, §3, §4

[3] = test system: Madin-Darby canine kidney (MDCK) cells; conditions: Shayman et al. 1991; cited from earlier work
[4] = 100 mg/kg, cited from earlier work
[5] = in vivo
[6] = Diabetic + PDMP, n=7, DL-threo-PDMP 100 mg/kg i.p. 4 days with piperonyl butoxide, mean ± S.D.
[7] = Control + PDMP, n=11, DL-threo-PDMP 100 mg/kg i.p. 4 days with piperonyl butoxide, mean ± S.D.

Structure (SMILES)	kidney weights of PDMP-treated diabetic animals compared with untreated diabetic animals ([1]; 4 days of treatment, animals hyperglycemic)	Body Weight ([1]; Diabetic + PDMP, n=7, DL-threo-PDMP 100 mg/kg i.p. 4 days from 14 days after streptozotocin, with piperonyl butoxide 600 mg/kg i.p., mean ± S.D.) [g]	BUN [1, 6] [mg/dL]	Kidney Weight [1, 6] [g]	glomerular volumes compared with control groups ([1]; morphometric analysis, five kidneys per group, diabetic animals treated with PDMP)	renal histology (drug-induced toxicity) ([1]; periodic acid Schiff stained kidney sections: acute tubular necrosis, acute or chronic inflammation, glomerular pathology)	Creatinine ([1]; serum, Diabetic + PDMP, n=7, DL-threo-PDMP 100 mg/kg i.p. 4 days with piperonyl butoxide, mean ± S.D.)	Body Weight ([2]; Control + PDMP, n=11, DL-threo-PDMP 100 mg/kg i.p. 4 days with piperonyl butoxide 600 mg/kg i.p., mean ± S.D.) [g]	BUN [2, 7] [mg/dL]	Kidney Weight [2, 7] [g]	glomerular size ([2]; morphometric analysis, five kidneys per group, non-diabetic rats)	Creatinine ([2]; serum, Control + PDMP, n=11, DL-threo-PDMP 100 mg/kg i.p. 4 days with piperonyl butoxide, mean ± S.D.)	endogenous glycosphingolipid content [3]	half life of PDMP ([4]; animals exposed to the mixed function oxidase inhibitor PB) [h]	half life of PDMP ([4]; without piperonyl butoxide (PB)) [h]	effect on renal growth or function [5]
CCCCCCCCCC(=O)N[C@H](CN1CCOCC1)[C@H](O)c1ccccc1 (relative stereo) [PDMP, 1-phenyl-2-decanoylamino-3-morpholino-1-propanol]	significantly lower	200 ± 11	28 ± 6.4	2.32 ± 0.19	not significantly different	no evidence of acute tubular necrosis, acute or chronic inflammation, or glomerular pathology	0.23 ± 0.05	238 ± 21	13 ± 3.2	2.25 ± 0.27	no effect	0.31 ± 0.09	decreased	4	1	–
OC1C(O)C(O)C2OC2C1O (centres unmarked) [conduritol B epoxide, reference compound]	–	–	–	–	–	–	–	–	–	–	–	–	increased	–	–	–
CCCCOCCOCCOCc1cc2c(cc1CCC)OCO2 [PB, piperonyl butoxide]	–	–	–	–	–	–	–	–	–	–	–	–	–	–	–	no effect

Reference: patent US5302609A, “Treatment of diabetic nephropathy” (The Regents of the University of Michigan, priority 1992, dated 1994)
